What is called Kb is the equilibrium dissociation constant of an antagonist, usually derived from a functional assay.

Structures can show the parent of a compound that is named as a salt.

Our source for the Kb values is patent US4352809A, “Method of producing alpha2 antagonism” (Smithkline Corporation, priority 1981, dated 1982).

In the experiment the target is T1, alpha2 -adrenoceptor (Cavia porcellus, UniProt Q60474).
T1 construct: The left atrium is removed, dissected free of extraneous tissue and mounted in a 2 ml. superfusion chamber; from tissue; host or cells: isolated left atrium of male guinea pig (prejunctional receptors on sympathetic nerve terminals)
T1 sequence (Q60474 1-464): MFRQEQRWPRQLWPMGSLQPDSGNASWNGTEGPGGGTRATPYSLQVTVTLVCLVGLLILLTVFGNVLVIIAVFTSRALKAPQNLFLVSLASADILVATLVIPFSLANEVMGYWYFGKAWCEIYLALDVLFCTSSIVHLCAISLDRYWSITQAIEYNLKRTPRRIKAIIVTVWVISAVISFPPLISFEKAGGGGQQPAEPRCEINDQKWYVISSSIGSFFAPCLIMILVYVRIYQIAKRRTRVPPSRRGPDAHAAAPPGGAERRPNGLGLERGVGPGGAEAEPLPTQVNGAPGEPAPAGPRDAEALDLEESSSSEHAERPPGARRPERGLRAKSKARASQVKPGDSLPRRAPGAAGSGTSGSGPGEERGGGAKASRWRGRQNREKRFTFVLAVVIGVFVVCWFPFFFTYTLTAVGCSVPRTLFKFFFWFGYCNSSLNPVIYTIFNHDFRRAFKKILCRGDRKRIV
Kind of experiment: prejunctional alpha2-antagonist activity, isolated superfused guinea pig left atrium (shift of the clonidine concentration-response curve). It counts as cell-based. The note with it: isolated perfused guinea pig left atrium; antagonist concentration that shifts the clonidine log concentration-response curve to the right by a factor of 2; read-out: KB (receptor dissociation constant of the antagonist). How it is done: Briefly, the heart is removed from a pentobarbitol-anesthetized male guinea pig. The left atrium is removed, dissected free of extraneous tissue and mounted in a 2 ml. superfusion chamber. The tissue is paced at 60 pulse/minute and the sympathetic nerves excited at 6 minute intervals by field stimulation. The response to nerve stimulation is measured as the difference in contractile force between the basal contraction and peak contraction following a nerve stimulation. A concentration-response curve for clonidine (alpha2 -agonist) is prepared by administering increasing concentration of clonidine following each successive stimulation. The tissue is then superfused with the alpha2 -antagonist to be tested for thirty minutes and the clonidine concentration-effect curve was repeated in the presence of antagonist. The receptor dissociation constant of the antagonist (KB) is defined as the antagonist concentration required to shift the log concentration-response curve of the agonist to the right by a factor of 2.

Turning to `c1cc2snnc2c2c1CCNC2` [[1,2,3]thiadiazolo[5,4-h]-6,7,8,9-tetrahydroisoquinoline hydrochloride], the Kb was 220 nM.
